ChEMBL document CHEMBL5346975, “Conjugation of Vancomycin with a Single Arginine Improves Efficacy against Mycobacteria by More Effective Peptidoglycan Targeting” (2023)
Values after ≈ are worked out from the molar mass of the structure shown. Active and inactive are the calls of the source. The rule behind the calls is not given here.

What was measured:
Format in all cases: functional
[1] = tested on: Mycolicibacterium smegmatis; assay: Antibiofilm activity against Mycobacterium smegmatis 700084 assessed as eradication of preformed bacterial biofilm incubated for 24 hrs by crystal violet staining based assay
Mycobacterium kansasii = assay: Antibacterial activity against Mycobacterium kansasii 12478 assessed as inhibition of bacterial growth incubated for 6 to 7 days by resazurin dye based broth microdilution method; conditions: time 6-7 day
Bacillus subtilis [2] = assay: (§1) Antibacterial activity of against Bacillus subtilis 23857 assessed as Ac-Kaa-induced neutralization of antibiotic effect by measuring molar excess ratio of smallest concentration of AC-Kaa required to neutralize antibiotic effect to MIC of antibiotic at 0.25 uM incubated for 48 hrs by resazurin dye based broth microdilution method
[3] = tested on: Mycolicibacterium smegmatis; assay: Synergistic antibacterial activity against Mycobacterium smegmatis 700084 assessed as fractional inhibitory concentration index incubated for 48 hrs in presence of ethambutol by checkerboard assay
[4] = tested on: Mycolicibacterium smegmatis; assay: Antibacterial activity against Mycobacterium smegmatis 700084 assessed as inhibition of bacterial growth incubated for 48 hrs by resazurin dye based broth microdilution method
[5] = tested on: Corynebacterium glutamicum; assay: Antibacterial activity against Corynebacterium glutamicum 13032 assessed as inhibition of bacterial growth incubated for 18 to 20 hrs by broth microdilution method; conditions: time 18-20 hrs
[6] = tested on: Mycobacteroides abscessus; assay: Synergistic antibacterial activity against Mycobacterium abscessus 19977 assessed as test compound MIC incubated for 72 hrs in presence of 39 uM ethambutol by checkerboard assay
[7] = tested on: Mycolicibacterium smegmatis; assay: Inhibition of peptidoglycan biosynthesis in Mycobacterium smegmatis 700084 assessed as increase in N-glycolyl modified precursor UDP-MurNGlyc-pentapeptide accumulation at 10 uM incubated for 4 hrs by RP-HPLC method
[8] = tested on: Mycobacteroides abscessus; assay: Antibacterial activity against Mycobacterium abscessus 19977 assessed as inhibition of bacterial growth incubated for 72 hrs by resazurin dye based broth microdilution method
[9] = tested on: Mycobacteroides abscessus; assay: Antibacterial activity against Mycobacterium abscessus 19977 assessed as elimination of viable bacteria at 2 times MIC measured after 50 hrs by time kill assay relative to control
[10] = tested on: Corynebacterium glutamicum; assay: as §1, with “Corynebacterium glutamicum 13032” for “Bacillus subtilis 23857”
[11] = tested on: Mycobacteroides abscessus; assay: Synergistic antibacterial activity against Mycobacterium abscessus 19977 assessed as fractional inhibitory concentration index incubated for 72 hrs in presence of ethambutol by checkerboard assay
[12] = tested on: Mycobacteroides abscessus; assay: Synergistic antibacterial activity against Mycobacterium abscessus 19977 assessed as test compound MIC incubated for 72 hrs in presence of 78 uM ethambutol by checkerboard assay
[13] = tested on: Mycolicibacterium smegmatis; assay: as §1, with “Mycobacterium smegmatis 700084” for “Bacillus subtilis 23857”, “16” for “0.25”
Bacillus subtilis [14] = assay: Antibacterial activity against Bacillus subtilis 23857 assessed as inhibition of bacterial growth incubated for 18 to 20 hrs by broth microdilution method; conditions: time 18-20 hrs
Mycobacterium avium [15] = assay: Antibacterial activity against Mycobacterium avium 700898 assessed as inhibition of bacterial growth incubated for 6 to 7 days by resazurin dye based broth microdilution method; conditions: time 6-7 day
[16] = tested on: Mycolicibacterium smegmatis; assay: Inhibition of biofilm formation in Mycobacterium smegmatis 700084 assessed as reduction in wrinkled pellicle formation incubated for 5 days; conditions: time 5 day
Mycobacterium avium [17] = assay: Antibacterial activity against Mycobacterium avium 25291 assessed as inhibition of bacterial growth incubated for 6 to 7 days by resazurin dye based broth microdilution method; conditions: time 6-7 day

Row | Compound | MBEC [1] | MIC (Mycobacterium kansasii) | Ratio (Bacillus subtilis [2]) | fractional inhibitory concentration index (FICI) [3] | MIC [4] | MIC [5] | MIC [6] | inhibition [7] | MIC [8] | Activity [9] | Ratio [10] | fractional inhibitory concentration index (FICI) [11] | MIC [12] | Ratio [13] | MIC (Bacillus subtilis [14]) | MIC (Mycobacterium avium [15]) | BBC [16] | MIC (Mycobacterium avium [17])
1 | CC[C@@H](CO)NCCN[C@@H](CC)CO [ETHAMBUTOL] | >256 µg/mL |  |  |  |  |  |  |  |  |  |  |  |  |  |  |  |  | 
2 | CO[C@H]1/C=C/O[C@@]2(C)Oc3c(C)c(O)c4c(O)c(c(/C=N/N5CCN(C)CC5)c(O)c4c3C2=O)NC(=O)/C(C)=C\C=C\[C@H](C)[C@H](O)[C@@H](C)[C@@H](O)[C@@H](C)[C@H](OC(C)=O)[C@@H]1C [RIFAMPIN] | 156 µM |  |  |  |  |  |  |  |  |  |  |  |  |  |  |  |  | 
3 | CN[C@H](CC(C)C)C(=O)N[C@H]1C(=O)N[C@@H](CC(N)=O)C(=O)N[C@H]2C(=O)N[C@H]3C(=O)N[C@H](C(=O)N[C@H](C(=O)O)c4cc(O)cc(O)c4-c4cc3ccc4O)[C@H](O)c3ccc(c(Cl)c3)Oc3cc2cc(c3O[C@@H]2O[C@H](CO)[C@@H](O)[C@H](O)[C@H]2O[C@H]2C[C@](C)(N)[C@H](O)[C@H](C)O2)Oc2ccc(cc2Cl)[C@H]1O [VANCOMYCIN] | 64 µM | 24 µM (≈ 34.8 µg/mL) | 15.6 | 0.28 | 8 µM (≈ 11.6 µg/mL) | 0.25 µM (≈ 0.362 µg/mL) | 3 µM | Active | 64 µM (≈ 92.8 µg/mL) | >95% | 62.5 | 0.17 | 2 µM | 3.9 | 0.25 µM (≈ 0.362 µg/mL) | 64 µM (≈ 92.8 µg/mL) | 0.5 µM | > 256 µM
